Experimental data reported in US6303619A, “Meta-substituted acidic 8-phenylxanthine antagonists of A3 human adenosine receptors” (priority 1998, dated 2001).

Biological target: T1, human A1 adenosine receptor (Homo sapiens, UniProt P30542)
T1 construct: expressed in transfected cells; host or cells: COS7 or CHO cells
T1 sequence (P30542 1-326): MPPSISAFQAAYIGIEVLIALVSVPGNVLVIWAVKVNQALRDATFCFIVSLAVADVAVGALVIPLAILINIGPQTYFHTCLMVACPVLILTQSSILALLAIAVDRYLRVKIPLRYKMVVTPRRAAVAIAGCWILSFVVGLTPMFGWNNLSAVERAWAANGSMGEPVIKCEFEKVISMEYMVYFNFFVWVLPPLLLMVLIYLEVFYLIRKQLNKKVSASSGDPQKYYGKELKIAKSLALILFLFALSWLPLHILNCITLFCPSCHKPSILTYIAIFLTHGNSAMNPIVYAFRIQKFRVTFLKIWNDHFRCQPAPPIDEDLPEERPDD
Experiment: competition binding, recombinant human A1 adenosine receptor
Conditions: A3 versus A1
Method: Monolayer cell culture of transfected COS7 cells were dissociated with 1 mM EDTA in phosphate buffered saline and resuspended in 5 mM Tris, pH7.6/10 mM MgCl2. The cells were subjected to freeze-thaw lysis and the suspension was homogenized in a glass dounce homogenizer. The membranes were pelleted, resuspended in binding buffer, 50 mM Tris pH 7.6/10 mM MgCl2 and incubated with adenosine deaminase before the binding assay. The binding assay was performed by incubating 50-100 Fg of membranes with increasing concentrations of radiolabeled adenosine agonists. Bound ligand was separated from free ligand by filtration on a SKATRON CELL […] equipped with a receptor binding filtermat. Bound radioactivity was measured by scintillation counting. Substances which bind to or enhance binding to expressed human adenosine receptors in COS and CHO cells can be identified in competition binding assays with radiolabeled adenosine or xanthine analogs. […] Protein concentration was determined by tie method of Bradford ((1976) Anal. Biochem. 72: 248-250). […] Bound radioactivity was measured by scintillation counting in READY SAFE SCINTILLATION COCKTAIL (BECKMAN). […] Non-specific binding was determined in the presence of 100 FM CPA. Bound radioactivity was measured by scintillation counting in READY SAFE LIQUID SCINTILLATION COCKTAIL (BECKMAN).

## CCCn1c(=O)c2[nH]c(-c3cccc(C=CC(=O)O)c3)nc2n(CCC)c1=O [BW-3911]
  fold selectivity for A3 compared to human A1: 47 fold
